Source: ChEMBL document CHEMBL1125983, “Synthesis and evaluation of new protein-tyrosine kinase inhibitors. Part 2. Phenylhydrazones” (Bioorg Med Chem Lett, 1991)

Target: Tyrosine-protein kinase Lck (Homo sapiens, UniProt P06239)
Assay: Inhibitory concentration against phosphorylation of angiotensin I catalyzed by protein-tyrosine kinase p56lck

Sequence of Tyrosine-protein kinase Lck (P06239 whole entry): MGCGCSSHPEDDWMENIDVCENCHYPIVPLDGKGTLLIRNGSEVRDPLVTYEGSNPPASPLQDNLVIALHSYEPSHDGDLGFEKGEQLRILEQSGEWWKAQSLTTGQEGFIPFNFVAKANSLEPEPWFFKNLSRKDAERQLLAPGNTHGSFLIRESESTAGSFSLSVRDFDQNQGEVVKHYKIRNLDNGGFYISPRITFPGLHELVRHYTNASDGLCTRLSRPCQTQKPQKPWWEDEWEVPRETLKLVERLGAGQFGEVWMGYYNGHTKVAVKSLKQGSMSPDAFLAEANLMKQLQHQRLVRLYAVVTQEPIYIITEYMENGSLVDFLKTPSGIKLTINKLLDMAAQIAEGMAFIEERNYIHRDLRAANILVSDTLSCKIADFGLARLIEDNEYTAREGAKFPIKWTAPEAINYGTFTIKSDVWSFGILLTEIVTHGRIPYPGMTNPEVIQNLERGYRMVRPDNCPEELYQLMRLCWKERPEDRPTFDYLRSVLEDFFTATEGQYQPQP

Row | SMILES | IC50 [µM]
1 | COc1ccc(N/N=C/c2cccc(O)c2O)cc1 | 310
2 | C(=N\Nc1ccccc1)/c1ccncc1 | > 4060
3 | O=[N+]([O-])c1ccc(N/N=C/c2ccc(O)c(O)c2O)c([N+](=O)[O-])c1 | 144
4 | COc1ccc(/C=N/Nc2ccc(Br)cc2)cc1O | > 2490
5 | Oc1ccc(/C=N/Nc2ccc(Br)cc2)c(O)c1O | 1040
6 | O=[N+]([O-])c1cccc(/C=N/Nc2ccccc2)c1 | > 3320
7 | O=[N+]([O-])c1ccc(N/N=C/c2ccc(O)cc2O)c([N+](=O)[O-])c1 | 1000
8 | C(=N\Nc1ccccc1)/c1cccnc1 | 1320
9 | COc1ccc(N/N=C/c2cc(O)ccc2O)cc1 | 310
10 | Brc1ccc(N/N=C/c2ccncc2)cc1 | > 2900
11 | Brc1ccc(N/N=C/c2ccccn2)cc1 | > 2900
12 | Oc1ccc(/C=N/Nc2ccc(Br)cc2)c(O)c1 | 521
13 | Brc1ccc(N/N=C/c2cccnc2)cc1 | > 2900
14 | Oc1ccc(Br)cc1/C=N/Nc1ccc(Br)cc1 | > 2160
15 | O=[N+]([O-])c1ccc(/C=N/Nc2ccccc2)cc1 | > 3320
16 | C(=N\Nc1ccccc1)/c1ccccn1 | > 4060
17 | O=[N+]([O-])c1ccc(N/N=C/c2cccc(O)c2O)c([N+](=O)[O-])c1 | > 2510

Other lines, results leading:

Row | IC50 [µM] | SMILES
18 | 2590 | COc1cc(/C=N/Nc2ccccc2)ccc1O
19 | 227 | Oc1ccc(/C=N/Nc2ccccn2)cc1O
20 | 1010 | Oc1ccc(/C=N/Nc2ccccn2)c(O)c1
21 | > 3500 | Oc1ccc(O)c(/C=N/Nc2ccccc2)c1
22 | 1260 | Oc1cccc(/C=N/Nc2ccccc2)c1O
23 | 70 | Oc1ccc(/C=N/Nc2ccccc2)cc1O
24 | 179 | Oc1cc(/C=N/Nc2ccccn2)cc(O)c1O
25 | > 2600 | Oc1ccc(Br)cc1/C=N/Nc1ccccc1
26 | 400 | C(=N\Nc1ccccn1)/c1cccnc1
27 | 2110 | COc1ccc(/C=N/Nc2ccccc2)cc1O
28 | 743 | COc1ccc(N/N=C/c2ccc(O)c(O)c2)cc1
29 | 522 | Oc1ccc(/C=N/Nc2ccccn2)c(O)c1O
30 | 1570 | Oc1ccc(/C=N/Nc2ccccc2)c(O)c1O
31 | 350 | Oc1ccc(/C=N/Nc2ccccc2)c(O)c1
32 | 599 | Oc1ccc(/C=N/Nc2ccc(Br)cc2)cc1O
33 | 352 | O=[N+]([O-])c1ccc(N/N=C/c2ccc(O)c(O)c2)c([N+](=O)[O-])c1
